Literature values, collected in US20130296440A1 (CHROMADEX INC., priority 2012, published 2013).
Like-named read-outs stand apart in the source and are kept apart here.

What was measured:
[1] = system: PLA2; conditions: cultured cells
[2] = for bioavailability: in vivo; for half life t1/2: in blood
[3] = target: T1, 5-LOX (Homo sapiens, UniProt P09917); conditions: cultured cells
T1 construct: endogenous in cells
T1 sequence (P09917 1-674): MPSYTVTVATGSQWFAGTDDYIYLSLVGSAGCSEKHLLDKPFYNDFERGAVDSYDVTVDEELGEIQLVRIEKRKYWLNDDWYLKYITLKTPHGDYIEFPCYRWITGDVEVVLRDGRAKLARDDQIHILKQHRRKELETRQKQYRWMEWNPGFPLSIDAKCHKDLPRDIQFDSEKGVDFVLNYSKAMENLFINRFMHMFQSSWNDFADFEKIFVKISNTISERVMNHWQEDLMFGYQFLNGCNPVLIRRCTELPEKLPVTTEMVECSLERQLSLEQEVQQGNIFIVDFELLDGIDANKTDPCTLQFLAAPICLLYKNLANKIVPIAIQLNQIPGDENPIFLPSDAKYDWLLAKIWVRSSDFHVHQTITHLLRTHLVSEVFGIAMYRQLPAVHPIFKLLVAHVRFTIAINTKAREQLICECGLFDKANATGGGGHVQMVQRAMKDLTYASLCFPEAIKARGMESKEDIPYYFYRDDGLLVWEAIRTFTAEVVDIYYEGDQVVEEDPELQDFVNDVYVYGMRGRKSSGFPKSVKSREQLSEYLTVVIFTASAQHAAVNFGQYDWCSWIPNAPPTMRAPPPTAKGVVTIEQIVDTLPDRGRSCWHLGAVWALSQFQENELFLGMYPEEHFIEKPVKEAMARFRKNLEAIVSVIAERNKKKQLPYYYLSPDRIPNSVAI

[4] = system: COX-2; conditions: cultured cells
[5] = target: T2, CYP1B1 (Homo sapiens, UniProt Q16678); conditions: human recombinant
T2 sequence (Q16678 1-543): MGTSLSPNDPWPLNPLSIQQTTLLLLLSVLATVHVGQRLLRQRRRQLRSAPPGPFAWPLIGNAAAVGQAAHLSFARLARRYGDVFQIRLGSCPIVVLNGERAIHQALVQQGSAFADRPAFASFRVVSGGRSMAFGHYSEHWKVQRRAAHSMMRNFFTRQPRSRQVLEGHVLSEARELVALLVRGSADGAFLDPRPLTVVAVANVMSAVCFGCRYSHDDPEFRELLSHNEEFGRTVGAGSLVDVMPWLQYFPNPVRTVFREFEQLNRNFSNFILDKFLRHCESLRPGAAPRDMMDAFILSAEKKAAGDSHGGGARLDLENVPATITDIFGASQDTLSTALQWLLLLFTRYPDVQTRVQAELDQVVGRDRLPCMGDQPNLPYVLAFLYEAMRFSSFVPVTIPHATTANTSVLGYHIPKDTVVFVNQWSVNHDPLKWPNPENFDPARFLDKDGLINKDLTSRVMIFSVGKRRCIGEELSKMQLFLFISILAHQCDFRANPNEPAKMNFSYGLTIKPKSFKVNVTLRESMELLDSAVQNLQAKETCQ

[6] = mice; 28-day; 160 pound human equivalent doses of approximately 125 mg/day, 1.25 g/day and 12.5 g/day
[7] = target: T3, CYP1A1 (Homo sapiens, UniProt P04798); conditions: human recombinant
T3 sequence (P04798 1-512): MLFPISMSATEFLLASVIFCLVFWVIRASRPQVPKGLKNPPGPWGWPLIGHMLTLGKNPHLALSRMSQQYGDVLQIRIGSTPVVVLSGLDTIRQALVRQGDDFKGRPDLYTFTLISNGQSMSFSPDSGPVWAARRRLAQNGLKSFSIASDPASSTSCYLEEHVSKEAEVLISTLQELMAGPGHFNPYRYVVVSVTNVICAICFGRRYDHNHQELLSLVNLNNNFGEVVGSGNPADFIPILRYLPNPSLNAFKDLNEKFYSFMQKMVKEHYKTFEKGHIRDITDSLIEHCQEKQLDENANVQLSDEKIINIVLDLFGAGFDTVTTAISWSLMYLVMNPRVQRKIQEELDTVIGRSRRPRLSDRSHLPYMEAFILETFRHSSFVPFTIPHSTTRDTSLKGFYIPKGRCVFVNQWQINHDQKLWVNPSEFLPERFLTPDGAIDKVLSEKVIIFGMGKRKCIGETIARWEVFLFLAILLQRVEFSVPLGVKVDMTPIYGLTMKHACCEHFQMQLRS

[8] = target: T4, PPAR-alpha (Rattus norvegicus, UniProt P37230); conditions: for PPAR-alpha activation: luciferase reporter
T4 construct: Using a luciferase reporter gene construct containing the peroxisome proliferator response element promoter region; endogenous in cells; host or cells: H4IIEC3 rat liver cells
T4 sequence (P37230 1-468): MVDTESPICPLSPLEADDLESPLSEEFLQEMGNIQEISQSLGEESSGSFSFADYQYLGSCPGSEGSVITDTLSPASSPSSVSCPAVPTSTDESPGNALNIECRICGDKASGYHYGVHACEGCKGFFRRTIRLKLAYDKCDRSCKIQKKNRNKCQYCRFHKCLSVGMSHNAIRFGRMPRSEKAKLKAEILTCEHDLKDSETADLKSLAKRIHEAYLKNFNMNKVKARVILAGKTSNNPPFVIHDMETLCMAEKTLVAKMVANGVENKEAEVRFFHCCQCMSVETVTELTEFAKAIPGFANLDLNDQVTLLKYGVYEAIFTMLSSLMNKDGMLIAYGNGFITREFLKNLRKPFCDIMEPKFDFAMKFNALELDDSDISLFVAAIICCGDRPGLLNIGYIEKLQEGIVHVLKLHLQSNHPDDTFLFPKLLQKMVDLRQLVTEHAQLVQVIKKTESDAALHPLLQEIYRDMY

[9] = system: rat smooth muscle cells; conditions: in vitro
[10] = target: CYP2E1 (Homo sapiens, UniProt P05181)
Chain of CYP2E1 (P05181 whole entry, species assumed): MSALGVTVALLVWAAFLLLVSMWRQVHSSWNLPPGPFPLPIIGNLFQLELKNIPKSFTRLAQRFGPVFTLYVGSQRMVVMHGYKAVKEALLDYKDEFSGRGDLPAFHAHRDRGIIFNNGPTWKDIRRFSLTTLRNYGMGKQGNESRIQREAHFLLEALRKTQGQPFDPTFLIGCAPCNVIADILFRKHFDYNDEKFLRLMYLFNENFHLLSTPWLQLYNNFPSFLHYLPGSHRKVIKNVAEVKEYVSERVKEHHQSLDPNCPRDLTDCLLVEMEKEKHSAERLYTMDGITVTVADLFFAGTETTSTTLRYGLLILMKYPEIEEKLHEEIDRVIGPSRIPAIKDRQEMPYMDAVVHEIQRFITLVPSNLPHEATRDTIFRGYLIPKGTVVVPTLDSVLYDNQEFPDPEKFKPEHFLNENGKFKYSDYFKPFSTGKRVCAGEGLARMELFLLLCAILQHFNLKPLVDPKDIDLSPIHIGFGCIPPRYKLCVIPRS

[11] = system: H4IIEC3 rat liver cells; conditions: 100 μM
[12] = 100 μM, H4IIEC3 rat liver cells

**Q.** What does the source list for COc1cc(/C=C/C(=O)CC(=O)/C=C/c2ccc(O)c(OC)c2)ccc1O [curcumin, (1E,6E)-1,7-Bis(4-hydroxy-3-methoxyphenyl)-1,6-heptadiene-3,5-dione]?
**A.** PLA2 activity [1]: inhibit; bioavailability [2]: poor bioavailability; 5-LOX activity [3]: inhibit; COX-2 activity [4]: inhibit; water solubility: minimally water soluble

**Q.** For COc1cc(/C=C/c2ccc(O)cc2)cc(OC)c1 [pterostilbene, trans-3,5-dimethoxy-4′-hydroxystilbene], which “inhibition of CYP1B1 isozyme” value [5] is on record?
**A.** inhibit

**Q.** And the “local or systemic toxicity” value [6]?
**A.** no local or systemic toxicity

**Q.** What about the “half life t1/2” value [2] of the same compound?
**A.** 74 to 105 min

**Q.** And the bioavailability [2]?
**A.** orally bioavailable

**Q.** What about the “inhibition of CYP1A1 isozyme” value [7] of the same compound?
**A.** inhibit

**Q.** And the “PPAR-alpha activation relative to 100 μM of ciprofibrate” value [8, 12]?
**A.** ~2 fold

**Q.** And the PPAR-alpha activation [8, 12]?
**A.** 8 fold over the control

**Q.** And the PPAR-alpha activation ([8]; 300 μM, H4IIEC3 rat liver cells)?
**A.** 14 fold over the control

**Q.** What about the “PPAR-alpha activation within a group of similar stilbenes” value ([8]; in a manner similar to ciprofibrate (Rimando 2005)) of the same compound?
**A.** activated PPAR-alpha

**Q.** And the “proliferation of rat smooth muscle cells” value [9]?
**A.** inhibit

**Q.** What about the “inhibition of CYP2E1” value [10] of the same compound?
**A.** not

**Q.** Which results are given for Oc1ccc(C=Cc2cc(O)cc(O)c2)cc1 [resveratrol, reference compound]?
**A.** half life t1/2 [2]: 10 to 14 min; bioavailability [2]: poor bioavailability; toxicity to cells [11]: toxic to cells
